In US20120129949A1, “Use of Anthracene Derivatives as Anti-Infectives” (SEALIFE PHARMA GMBH, priority 2009, published 2012):
In brackets after ≈: the same amount, converted by molar mass. Read-outs that look alike come from different tables or passages of the source.

Legend:
[1] = tested on: E. coli; test: MIC test, multi-resistant E. coli; format: cell-based; details: multi-resistant strain; averages of multiple test runs; log2 dilutions from 250 μg/ml
Procedure: (§1) The activities of the compounds were tested in two different screening systems. The antibacterial and antifungal activities were examined by means of an MIC test, MIC standing for “minimal inhibitory concentration” and referring to the lowest concentration of a substance at which no proliferation of microorganisms can be observed with the naked eye. The MIC is determined by means of a so called titration method in which the substance is diluted and, subsequently, the pathogen is added to it.
(§2) Usually, this method is applied in order to determine the concentration of an antibiotic which only just inhibits the growth of a bacterial strain. The MIC is indicated in micrograms per milliliter (μg/ml), and the dilutions are conventionally carried out in log2 steps. Herein, a starting concentration of 250 μg/ml was diluted several times, to the double volume in each case, resulting in test concentrations of 250 μg/ml, 125 μg/ml, 62.5 μg/ml, 31.2 μg/ml, 15.6 μg/ml, 7.8 μg/ml, etc. Thus, lower values indicate a better activity as an anti-infective.
(§3) The tests were carried out according to the standards of EUCAST (European Committee for Antimicrobial Susceptibility Testing) and according to the AFST-protocol (“Antifungal Susceptibility Testing” protocol) of the European Society of Clinical Microbiology and Infectious Diseases (ESCMID).
(§4) In the following Table 3, the test results indicating the anti-infective action of altersolanol M, alterporriol I and J as well as of some known and structurally similar comparative substances against some multi-resistant bacteria and fungi (all of which were kindly placed at our disposal by Prof Georgopulos from the Medical University of Vienna). The data constituting averages of the values obtained in multiple test runs.

[2] = tested on: Enterococcus faecalis or faecium; test: MIC test, multi-resistant Enterococcus; format: cell-based; details: multi-resistant strain; averages of multiple test runs; log2 dilutions from 250 μg/ml
Procedure: as §1, §2, §3, §4

[3] = tested on: methicillin-resistant Staphylococcus aureus; test: MIC test, MRSA; format: cell-based; details: for MIC: Staphylococcus aureus, MRSA, read-out: MHK values MRSA (methicillin-resistant Staphylococcus aureus)
Procedure: as §1, §2, §3, §4

[4] = tested on: Streptococcus pneumoniae; test: MIC test, multi-resistant Streptococcus pneumoniae; format: cell-based; details: for MHK values STR (Streptococcus pneumoniae): multi-resistant strain, averages of multiple test runs, log2 dilutions from 250 μg/ml
Procedure: as §1, §2, §3, §4

[5] = tested on: Staphylococcus epidermis; test: MIC test, multi-resistant Staphylococcus epidermis; format: cell-based; details: for MIC: Staphylococcus, read-out: MHK values SE (Staphylococcus epidermis)
Procedure: as §1, §2, §3, §4

[6] = tested on: Acinetobacter baumanii; test: MIC test, multi-resistant Acinetobacter baumanii; format: cell-based; details: multi-resistant strain; averages of multiple test runs; log2 dilutions from 250 μg/ml
Procedure: as §1, §2, §3, §4

[7] = tested on: Aspergillus fumigatus or faecalis; test: MIC test (antifungal), Aspergillus; format: cell-based; details: multi-resistant strain; averages of multiple test runs; log2 dilutions from 250 μg/ml
Procedure: as §1, §2, §3, §4

[8] = tested on: bacteria and fungi; details: Aly et al., Phytochemistry 69, 1716-1725; cited from earlier work
[9] = Yagi et al., Phytochemistry 34(4), 1005-1009 (1993); cited from earlier work
[10] = tested on: Klebsiella sp.; test: MIC test, multi-resistant Klebsiella sp.; format: cell-based; details: multi-resistant strain; averages of multiple test runs; log2 dilutions from 250 μg/ml
Procedure: as §1, §2
(§5) The tests were carried out according to the standards of EUCAST (European Committee for Antimicrobial Susceptibility Testing) and according to the AFST-protocol (“Antifungal Susceptibility Testing” protocol) of the European Society of Clinical Microbiology and Infectious Diseases (ESCMID). […]

[11] = tested on: Staphylococcus aureus or methicillin-resistant Staphylococcus aureus; details: Xu et al. 2008; Sommart et al. 2008; cited from earlier work
[12] = tested on: Pseudomonas aeruginosa; test: MIC test, multi-resistant Pseudomonas aeruginosa; format: cell-based; details: multi-resistant strain; averages of multiple test runs; log2 dilutions from 250 μg/ml
Procedure: as §1, §2, §5

[13] = multi-resistant strain, averages of multiple test runs, log2 dilutions from 250 μg/ml
[14] = verbal summary of the MIC test series

COc1cc(O)c(C(=O)O)c(-c2cc(O)c(O)cc2C)c1 [Altenusin]
MHK values EC (E. coli) [1]: 62.5 µg/mL | MHK values EK (Enterococcus faecalis or faecium) [2]: 62.5 µg/mL | MIC [3]: 31.2 µg/mL (≈ 107 µM) | MHK values STR (Streptococcus pneumoniae) [4]: 31.2 µg/mL | MIC [5]: 31.2 µg/mL (≈ 107 µM) | MHK values AB (Acinetobacter baumanii) [6]: 62.5 µg/mL

COc1cc(O)c2c(c1)C(=O)C1=C(C2=O)[C@H](O)[C@@H](O)[C@@](C)(O)[C@@H]1O [Altersolanol A, 7-methoxy-2-methyl-(1R,2S,3R,4S)-1,2,3,4-tetrahydro-1,2,3,4,5-pentahydroxy-anthracene-9,10-dione]
MHK values EC (E. coli) [1]: 62.5 µg/mL | MHK values EK (Enterococcus faecalis or faecium) [2]: 15.6 µg/mL | MIC [3]: 7.8 µg/mL (≈ 23.2 µM) | MHK values STR (Streptococcus pneumoniae) [4]: 7.8 µg/mL | MIC [5, 13]: 7.8 µg/mL (≈ 23.2 µM) | MHK values AB (Acinetobacter baumanii) [6]: 62.5 µg/mL | MHK values ASP (Aspergillus fumigatus or faecalis) [7]: 7.8 µg/mL | activity against bacteria and fungi [8]: most efficient of the tested substances | anti-microbial activity [9]: anti-microbial activity

COc1cc(O)c2c(c1)C(=O)[C@H]1C[C@](C)(O)[C@H](O)C[C@@H]1[C@H]2O [Altersolanol J]
MHK values KL (Klebsiella sp.) [10]: 125 µg/mL | MHK values EK (Enterococcus faecalis or faecium) [2]: 31.2 µg/mL | MHK values MRSA (methicillin-resistant Staphylococcus aureus) [3, 13]: 62.5 µg/mL | MHK values STR (Streptococcus pneumoniae) [4]: 15.6 µg/mL | MHK values SE (Staphylococcus epidermis) [5, 13]: 62.5 µg/mL | MHK values AB (Acinetobacter baumanii) [6]: 125 µg/mL | MHK values ASP (Aspergillus fumigatus or faecalis) [7]: 125 µg/mL | activity against bacteria and fungi [8]: do not show any activity

COc1cc(O)c2c(c1)[C@H](O)[C@@H]1[C@@H](C2=O)[C@H](O)[C@@H](O)[C@@](C)(O)[C@@H]1O [Ampelanol]
activity against bacteria and fungi [8]: do not show any activity

COC1=CC(=O)c2c(O)c3c(c(O)c2C1=O)C[C@](C)(O)[C@H](O)[C@H]3O [Bostrycin]
MIC [3, 13]: 125 µg/mL (≈ 372 µM) | MHK values STR (Streptococcus pneumoniae) [4]: 62.5 µg/mL | MIC [5, 13]: 125 µg/mL (≈ 372 µM) | MHK values AB (Acinetobacter baumanii) [6]: 125 µg/mL

COc1cc(O)c2c(c1)C(=O)[C@@H]1[C@H](C[C@@H](O)[C@@](C)(O)[C@@H]1O)[C@H]2O [Example 2, (1R,2R,3R,4aS,9aR,10R)-1,2,3,5,10-pentahydroxy-7-methoxy-2-methyl-1,2,3,4,4a,9a-hexahydro-9H,10H-anthracen-9-one]
MHK values EK (Enterococcus faecalis or faecium) [2]: 31.2 µg/mL | MIC [3, 13]: 31.2 µg/mL (≈ 96.2 µM) | MHK values STR (Streptococcus pneumoniae) [4]: 31.2 µg/mL | MIC [5, 13]: 31.2 µg/mL (≈ 96.2 µM) | MHK values ASP (Aspergillus fumigatus or faecalis) [7]: 62.5 µg/mL

COc1cc(O)c2c(c1)[C@H](O)[C@@H]1[C@H](C[C@@H](O)[C@@](C)(O)[C@@H]1O)C2=O [Example 3, (2R,3R,4R,4aS,9aS,10R)-2,3,4,8,10-pentahydroxy-6-methoxy-3-methyl-1,2,3,4,4a,9a-hexahydro-9H,10H-anthracen-9-one]
MHK values EK (Enterococcus faecalis or faecium) [2]: 7.8 µg/mL | MIC [3, 13]: 7.8 µg/mL (≈ 24 µM) | MHK values STR (Streptococcus pneumoniae) [4]: 7.8 µg/mL | MIC [5, 13]: 7.8 µg/mL (≈ 24 µM) | MHK values AB (Acinetobacter baumanii) [6]: 7.8 µg/mL | MHK values ASP (Aspergillus fumigatus or faecalis) [7]: 31.2 µg/mL

COc1cc2c(c(O)c1-c1c(OC)cc(O)c3c1C(=O)C1=C(C3=O)[C@H](O)[C@@H](O)[C@@](C)(O)[C@H]1O)C(=O)c1cc(O)c(C)cc1C2=O [Example 4, 8-(1,7-dihydroxy-6-methyl-3-methoxy-9,10-dioxo-9H,10H-anthracen-2-yl)-(1S,2S,3R,4S)-1,2,3,4,5-pentahydroxy-7-methoxy-2-methyl-1,2,3,4-tetrahydro-9H,10H-anthracen-9,10-dione]
MHK values EK (Enterococcus faecalis or faecium) [2]: 7.8 µg/mL | MIC [3]: 7.8 µg/mL (≈ 12.6 µM) | MHK values STR (Streptococcus pneumoniae) [4]: 7.8 µg/mL | MIC [5, 13]: 7.8 µg/mL (≈ 12.6 µM) | MHK values ASP (Aspergillus fumigatus or faecalis) [7]: 125 µg/mL

COc1cc(O)c2c(c1O)[C@H](O)[C@H]1C[C@](C)(O)[C@H](O)C[C@@H]1C2=O [Example 5, (2R,3S,4aS,9aS,10R)-2,3,5,8,10-penta-hydroxy-6-methoxy-3-methyl-1,2,3,4,4a,9a-hexahydro-9H,10H-anthracen-9-one]
MHK values EK (Enterococcus faecalis or faecium) [2]: 125 µg/mL | MIC [3, 13]: 15.6 µg/mL (≈ 48.1 µM) | activity against methicillin-resistant Staphylococcus aureus, in words [3, 14]: very good activity | MHK values STR (Streptococcus pneumoniae) [4]: 7.8 µg/mL | activity against Streptococcus pneumoniae, in words [4, 14]: excellent effectiveness | MIC [5, 13]: 15.6 µg/mL (≈ 48.1 µM) | MHK values ASP (Aspergillus fumigatus or faecalis) [7]: 31.2 µg/mL | effectiveness against Staphylococcus aureus or methicillin-resistant Staphylococcus aureus [11]: slight effectiveness

COc1cc(O)c2c(c1)C(=O)c1cc(C)c(O)cc1C2=O [Macrosporin]
MHK values EC (E. coli) [1]: 62.5 µg/mL | MIC [3, 13]: 62.5 µg/mL (≈ 220 µM) | MIC [5, 13]: 62.5 µg/mL (≈ 220 µM) | MHK values AB (Acinetobacter baumanii) [6]: 125 µg/mL

COc1cc(O)c2c(c1)C(=O)C1=C(C[C@@H](O)[C@@](C)(O)C1)C2=O [altersolanol B]
anti-microbial activity [9]: anti-microbial activity

COc1cc(O)c2c(c1)C(=O)C1=C(C[C@@H](O)[C@@](C)(O)[C@@H]1O)C2=O [altersolanol C]
anti-microbial activity [9]: anti-microbial activity

Alterporriol A + B
MHK values EK (Enterococcus faecalis or faecium) [2]: 15.6 µg/mL | MHK values MRSA (methicillin-resistant Staphylococcus aureus) [3, 13]: 15.6 µg/mL | MHK values STR (Streptococcus pneumoniae) [4]: 7.8 µg/mL | MHK values SE (Staphylococcus epidermis) [5, 13]: 15.6 µg/mL | MHK values AB (Acinetobacter baumanii) [6]: 125 µg/mL | MHK values ASP (Aspergillus fumigatus or faecalis) [7]: 62.5 µg/mL

Indole carbaldehyde (carboxaldehyde)
MHK values PS (Pseudomonas aeruginosa) [12]: 125 µg/mL | MHK values STR (Streptococcus pneumoniae) [4]: 62.5 µg/mL | MHK values AB (Acinetobacter baumanii) [6]: 125 µg/mL

Macrosporin sulfate
MHK values STR (Streptococcus pneumoniae) [4]: 31.2 µg/mL | MHK values AB (Acinetobacter baumanii) [6]: 125 µg/mL

alterporriols D and E
activity against bacteria and fungi [8]: do not show any activity

altersolanol D
anti-microbial activity [9]: completely ineffective

altersolanol F
anti-microbial activity [9]: completely ineffective
